Test results reported in patent US11639360B2, “Oxazine compound and application thereof” (DALIAN UNIVERSITY OF TECHNOLOGY, priority 2018, dated 2023).

How the values were obtained:
[1] = Spectral test experiment (UV-vis spectrophotometer and fluorescence spectrometer); type: physicochemical; conditions: in dichloromethane
Experimental: The compound F-1 synthesized in Embodiment 1 was used, and F-1-DMSO solution was added into dichloromethane and mixed evenly. Spectral properties of the compound F-1 were tested by a UV-vis spectrophotometer and a fluorescence spectrometer. The results are shown in FIG. 2, wherein the F-1 molecules have the maximum absorption and the maximum emission at 680 nanometers and 700 nanometers in the dichloromethane respectively.
The compound F-2 synthesized in Embodiment 6 was used, and F-2-DMSO solution was added into dichloromethane and mixed evenly. Spectral properties of the […] were tested by a UV-vis spectrophotometer and a fluorescence spectrometer. The results are shown in FIG. 6, wherein the F-2 molecules have the maximum absorption and the maximum emission at 686 nanometers and 712 nanometers in the dichloromethane are respectively.
The compound F-3 synthesized in Embodiment 11 was used, and F-3-DMSO solution was added into dichloromethane and mixed evenly. Spectral properties of the […] were tested by a UV-vis spectrophotometer and a fluorescence spectrometer. The results are shown in FIG. 10, wherein the F-3 molecules have the maximum absorption and the maximum emission at 697 nanometers and 740 nanometers in the dichloromethane.

[2] = tested on: MCF-7 (human breast cancer cell); experiment: In vitro cell anti-cancer test under illumination (MTT); type: cell-based; conditions: MTT cell survival rate; for killing effect on the cells under illumination: MCF-7, 30 minutes incubation, red light 660 nanometers; for killing effect on the cells without illumination: MCF-7, no illumination
Experimental: MCF-7 (human breast cancer cell) was planted in 96-well culture plates at a density of 5000 cells per well and cultured in a cell incubator for 24 hours (37° C., 5% CO2). The compound F-1 synthesized in Embodiment 1 was used, and F-1-DMSO solution was added into DMEM containing 10% fetal calf serum to prepare solutions with different concentrations, and the prepared solutions were added to the 96-well culture plates and placed in a cell incubator to incubate for 30 minutes, and then irradiated for a certain period by red light with a wavelength of 660 nanometers. After irradiation, 96 empty plates were placed in a cell incubator and continuously incubated for 12 hours. Then, 100 μl of culture medium containing 5 mg/ml MTT was added to each well, and incubated in a cell incubator for 4 hours. The culture solutions in the well of the plates were removed, 100 µl of DMSO was added to each well to fully dissolve MTT oxidation products, and then the absorbance of each well at 570 nanometers and 630 nanometers were measured with a microplate reader, and a cell survival rate was calculated.
MCF-7 (human breast cancer cell) was planted in 96-well culture plates at a density of 5000 cells per well and cultured in a cell incubator for 24 hours (37° C., 5% CO2). The compound F-2 synthesized in Embodiment 6 was used, and F-2-DMSO solution was added into DMEM containing 10% fetal calf serum to prepare solutions with different concentrations, and the prepared solutions were added to the 96-well culture plates and placed in the cell incubator to incubate for 30 minutes, and then irradiated for a certain period by red light with a wavelength of 660 nanometers. After irradiation, 96 empty plates were placed in a cell incubator and continuously incubated for 12 hours. Then, 100 μl of culture medium containing 5 mg/ml MTT was added to each well, and incubated in a cell incubator for 4 hours. The culture solutions in the well of the plates were removed, 100 µl of DMSO was added to each well to fully dissolve MTT oxidation products, and then the absorbance of each well at 570 nanometers and 630 nanometers were measured with a microplate reader, and a cell survival rate was calculated.
MCF-7 (human breast cancer cell) was planted in 96-well culture plates at a density of 5000 cells per well and cultured in a cell incubator for 24 hours (37° C., 5% CO2). The compound F-3 synthesized in Embodiment 11 was used, and […] was added into DMEM containing 10% fetal calf serum to prepare solutions with different concentrations, and the prepared solutions were added to the 96-well culture plates and placed in the cell incubator to incubate for 30 minutes, and then irradiated for a certain period by red light with a wavelength of 660 nanometers. After irradiation, 96 empty plates were placed in a cell incubator and continuously incubated for 12 hours. Then, 100 μl of culture medium containing 5 mg/ml MTT was added to each well, and incubated in a cell incubator for 4 hours. The culture solutions in the well of the plates were removed, 100 μl of DMSO was added to each well to fully dissolve MTT oxidation products, and then the absorbance of each well at 570 nanometers and 630 nanometers were measured with a microplate reader, and a cell survival rate was calculated.

[3] = Self-assembled nano drug-delivery system, scanning electron microscope; type: physicochemical; conditions: self-assembled in PBS or ultrapure water
Experimental: The compound F-1 synthesized in Embodiment 1 was used, and a proper amount of F-1-DMSO solution was added into a phosphate buffer (PBS) or ultrapure water as required. After shaking the mixture evenly, the compound F-1 could be self-assembled in the PBS or ultrapure water to form a nanoparticle system. It can be seen from FIG. 14 that the nanoparticles formed by the self-assembly of the compound F-1 in the nano-system are about 200 nanometers in size, regular in shape and uniform in size, and have excellent dispersion properties.

| Compound | maximum absorption [1] | maximum emission [1] | killing effect on the cells under illumination [2] | killing effect on the cells without illumination [2] | size of nanoparticles formed by self-assembly [3] |
| --- | --- | --- | --- | --- | --- |
| CC/N=c1/cc2[se]c3c4c5c(cc3nc-2c2ccccc12)CCCN5CCC4 [Compound F-2] | 686 nanometers | 712 nanometers | obvious killing effect on the cells at low energy density of illumination | very small killing effect on the cells without illumination, and has almost no toxicity |  |
| CC/N=c1/cc2[te]c3c4c5c(cc3nc-2c2ccccc12)CCCN5CCC4 [Compound F-3] | 697 nanometers | 740 nanometers | obvious killing effect on the cells at low energy density of illumination | a certain killing effect on the cells without illumination |  |
| CC/N=c1/cc2sc3c4c5c(cc3nc-2c2ccccc12)CCCN5CCC4 [Compound F-1] | 680 nanometers | 700 nanometers | obvious killing effect on the cells | very small killing effect on the cells without illumination, and has almost no toxicity | about 200 nanometers |
